± gives the standard deviation of the averaged measurements.
Columns and labels:
Assay in all cases: level (log10 ratio to DMSO vehicle control); higher = higher biomarker level / cell amount than vehicle control
Settings in all cases: in DMSO
[1] = compound: C=CC(=O)OCCC(F)(F)C(F)(F)C(F)(F)C(F)(F)F [2-(Perfluorobutyl)ethyl acrylate]
Method: (§1)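 BioMAP Diversity Plus panel of 12 human primary cell co-culture systems (3C, 4H, LPS, SAg, BT, BF4T, BE3C, CASM3C, HDF3CGF, KF3CT, MyoF, Mphg). Compounds were added 1 h before stimulation and left for 24 h (MyoF 48 h; BT 72 h for soluble read-outs or 6 d for IgG). Biomarkers were read by ELISA, cytotoxicity by SRB, PBMC viability and proliferation by Alamar Blue. Each well value was divided by the mean of 8 DMSO control wells on the same plate and log10 transformed; duplicate blinded samples were tested at 4 concentrations.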

[2] = compound: CNS(=O)(=O)C(F)(F)C(F)(F)C(F)(F)C(F)(F)C(F)(F)C(F)(F)C(F)(F)C(F)(F)F [N-Methylperfluorooctanesulfonamide]
Method: as §1

[3] = compound: FC(F)(F)C(F)(F)C(F)(F)C(F)(F)C(F)(F)C(F)(F)C(F)(F)CCI [1-Iodo-1H,1H,2H,2H-perfluorononane]
Method: as §1

[4] = compound: N=C(N)C(F)(F)C(F)(F)C(F)(F)C(F)(F)C(F)(F)C(F)(F)C(F)(F)F [Perfluorooctanamidine]
Method: as §1

[5] = compound: O=C(O)C(F)(F)OC(F)(F)C(F)(F)OC(F)(F)C(F)(F)C(F)(F)C(F)(F)F [Perfluoro-3,6-dioxadecanoic acid]
Method: as §1

[6] = compound: O=C(O)CCC(F)(F)C(F)(F)C(F)(F)F [3:3 Fluorotelomer carboxylic acid]
Method: as §1

[7] = compound: OCC(F)(F)C(F)(F)C(F)(F)C(F)(F)C(F)(F)C(F)F [1H,1H,7H-Dodecafluoro-1-heptanol]
Method: as §1

Test System | level (log10) ([1]; 6700 nM) | level (log10) ([1]; 20000 nM) | level (log10) ([1]; 60000 nM) | level (log10) ([2]; 6700 nM) | level (log10) ([2]; 20000 nM) | level (log10) ([2]; 60000 nM) | level (log10) ([3]; 6700 nM) | level (log10) ([3]; 20000 nM) | level (log10) ([4]; 6700 nM) | level (log10) ([4]; 20000 nM) | level (log10) ([4]; 60000 nM) | level (log10) ([5]; 6700 nM) | level (log10) ([5]; 20000 nM) | level (log10) ([5]; 60000 nM) | level (log10) ([6]; 6700 nM) | level (log10) ([6]; 20000 nM) | level (log10) ([6]; 60000 nM) | level (log10) ([7]; 6700 nM) | level (log10) ([7]; 20000 nM) | level (log10) ([7]; 60000 nM)
LPS:SRB | 0.0015 ± 0.012 | -0.0015 ± 0.0035 | -0.013 ± 0.013 | -0.0005 ± 0.00071 | -0.03 ± 0.0042 | -0.0625 ± 0.039 | 0.0125 ± 0.0064 | 0.019 ± 0.017 | -0.005 ± 0.0085 | 0.006 ± 0.011 | -0.035 | -0.01 ± 0.014 | -0.0025 ± 0.005 | -0.105 ± 0.069 | -0.008 ± 0.0014 | -0.0025 ± 0.0064 | 0.0065 ± 0.0064 | -0.008 ± 0.0014 | -0.006 ± 0.0042 | -0.0015 ± 0.015
BE3C:EGFR | -0.003 | -0.0065 ± 0.00071 | -0.014 ± 0.023 | 0.001 ± 0.0057 | -0.0005 ± 0.0064 | -0.0305 ± 0.026 | 0.005 ± 0.014 | -0.008 ± 0.02 | -0.009 ± 0.0014 | -0.013 ± 0.014 | -0.022 | -0.02 ± 0.02 | -0.0485 ± 0.019 | -0.122 ± 0.0092 | 0.006 ± 0.0057 | 0.0105 ± 0.013 | -0.0015 ± 0.005 | 0.0125 ± 0.0092 | -0.0005 ± 0.0092 | 0.0095 ± 0.0021
SAg:CD62E/E-Selectin | -0.0185 ± 0.012 | -0.1 ± 0.016 | -0.625 ± 0.068 | -0.021 ± 0.0042 | -0.0475 ± 0.019 | -0.043 ± 0.0071 | 0 ± 0.014 | -0.0225 ± 0.053 | 0.004 ± 0.0014 | 0.0265 ± 0.00071 | -0.049 | 0.027 ± 0.058 | 0.0485 ± 0.025 | 0.065 ± 0.081 | -0.0265 ± 0.0021 | -0.0185 ± 0.032 | -0.007 ± 0.0085 | -0.0075 ± 0.0021 | -0.0205 ± 0.013 | -0.02 ± 0.0057
4H:CCL2/MCP-1 | -0.0405 ± 0.028 | -0.043 ± 0.037 | 0.009 ± 0.11 | 0.002 ± 0.017 | -0.064 ± 0.017 | -0.103 ± 0.027 | -0.0175 ± 0.019 | 0.0395 ± 0.1 | 0.0095 ± 0.011 | -0.0055 ± 0.0064 | 0.061 | -0.0225 ± 0.0092 | -0.0425 ± 0.011 | -0.093 ± 0.14 | -0.032 ± 0.048 | -0.0525 ± 0.012 | 0.007 ± 0.013 | -0.0365 ± 0.016 | -0.028 ± 0.0085 | 0.0135 ± 0.093
BF4T:IL-1alpha | -0.0115 ± 0.0078 | -0.0305 ± 0.011 | 0.012 ± 0.038 | 0.0065 ± 0.0078 | 0.0005 ± 0.015 | 0.0285 ± 0.049 | -0.011 ± 0.0042 | 0.033 ± 0.031 | -0.003 ± 0.0085 | -0.017 ± 0.0014 | 0.042 | 0.008 ± 0.0057 | 0.0015 ± 0.00071 | -0.0055 ± 0.005 | -0.0035 ± 0.019 | -0.009 ± 0.02 | 0.003 | -0.006 ± 0.024 | -0.006 ± 0.0099 | -0.0085 ± 0.012
4H:CD106/VCAM-1 | -0.0215 ± 0.013 | -0.0495 ± 0.056 | -0.123 ± 0.085 | 0 ± 0.0014 | 0.015 ± 0.0042 | -0.0435 ± 0.032 | -0.003 ± 0.027 | -0.0585 ± 0.083 | 0.0015 ± 0.011 | -0.028 ± 0.016 | -0.132 | -0.0095 ± 0.018 | -0.0195 ± 0.022 | -0.039 ± 0.0099 | -0.009 ± 0.0028 | -0.014 ± 0.014 | -0.0165 ± 0.013 | 0.009 ± 0.034 | -0.016 ± 0.0085 | -0.0125 ± 0.0092
BF4T:MMP-9 | -0.0015 ± 0.035 | -0.006 ± 0.057 | -0.013 ± 0.058 | -0.0095 ± 0.011 | 0.008 ± 0.0014 | -0.021 ± 0.045 | 0.007 ± 0.044 | -0.0065 ± 0.028 | -0.006 ± 0.0057 | -0.0115 ± 0.013 | 0.053 | -0.035 ± 0.0057 | -0.0215 ± 0.0064 | -0.051 ± 0.02 | 0.0165 ± 0.07 | 0.002 ± 0.065 | 0.0285 ± 0.046 | -0.0055 ± 0.03 | -0.011 ± 0.027 | 0.0095 ± 0.046
BF4T:MMP-1 | -0.003 ± 0.044 | -0.003 ± 0.051 | 0.047 ± 0.031 | 0.012 ± 0.02 | 0.0105 ± 0.015 | -0.0105 ± 0.044 | 0.001 ± 0.035 | 0.016 ± 0.033 | 0.015 ± 0.02 | 0.006 ± 0.024 | 0.092 | -0.046 ± 0.013 | 0.01 ± 0.037 | 0.0625 ± 0.015 | 0.0005 ± 0.0064 | -0.0065 ± 0.011 | -0.005 ± 0.027 | 0.0095 ± 0.04 | 0.0145 ± 0.037 | 0.0245 ± 0.0092
BF4T:SRB | -0.003 ± 0.0014 | -0.005 | -0.0085 ± 0.0021 | -0.016 ± 0.0071 | -0.021 ± 0.0042 | -0.0115 ± 0.013 | -0.001 ± 0.0042 | 0.001 ± 0.0042 | -0.009 ± 0.0071 | -0.0085 ± 0.0035 | -0.004 | -0.024 ± 0.0014 | -0.023 ± 0.0057 | -0.053 ± 0.0085 | -0.008 ± 0.0057 | -0.0105 ± 0.0035 | 0 ± 0.0014 | -0.007 ± 0.0028 | -0.01 | -0.0005 ± 0.005
LPS:CXCL8/IL-8 | 0.0145 ± 0.015 | 0.0225 ± 0.012 | -0.015 ± 0.054 | -0.007 ± 0.0085 | -0.003 ± 0.016 | -0.0025 ± 0.019 | 0.005 ± 0.072 | -0.001 ± 0.082 | -0.019 ± 0.027 | -0.005 ± 0.016 | -0.028 | -0.0175 ± 0.0092 | -0.0145 ± 0.013 | 0.018 ± 0.02 | 0.004 ± 0.0042 | -0.0105 ± 0.0021 | 0.0165 ± 0.03 | 0.0055 ± 0.029 | 0.0005 ± 0.022 | 0.0025 ± 0.011
LPS:sPGE2 | -0.0675 ± 0.022 | -0.099 ± 0.0085 | -0.101 ± 0.021 | -0.011 ± 0.0028 | 0.038 ± 0.0028 | 0.0305 ± 0.032 | -0.0095 ± 0.0021 | -0.03 ± 0.017 | -0.019 ± 0.031 | -0.078 ± 0.031 | -0.06 | -0.105 ± 0.011 | -0.161 ± 0.0078 | -0.248 ± 0.03 | -0.0115 ± 0.0092 | -0.0165 ± 0.036 | 0.0205 ± 0.025 | -0.0455 ± 0.066 | -0.0115 ± 0.016 | -0.011 ± 0.0057
BT:sIL-2 | 0.0045 ± 0.1 | -0.011 ± 0.016 | -0.511 ± 0.23 | -0.0385 ± 0.073 | -0.0105 ± 0.032 | 0.0385 ± 0.083 | 0.0055 ± 0.0035 | -0.0045 ± 0.019 | 0.0225 ± 0.057 | -0.01 ± 0.031 | -0.002 | 0.0465 ± 0.036 | 0.0285 ± 0.16 | -0.011 ± 0.095 | -0.042 ± 0.13 | -0.0335 ± 0.022 | 0.0335 ± 0.0021 | 0.026 ± 0.013 | -0.0265 ± 0.005 | -0.025 ± 0.045
BF4T:MMP-3 | -0.008 ± 0.021 | 0.0315 ± 0.052 | 0.0525 ± 0.00071 | 0.0015 ± 0.046 | 0.012 ± 0.052 | 0.044 ± 0.064 | 0.0185 ± 0.013 | 0.011 ± 0.0014 | 0.0035 ± 0.032 | 0.003 ± 0.055 | 0.148 | 0.008 ± 0.0057 | 0.11 ± 0.015 | 0.161 ± 0.037 | 0.0285 ± 0.042 | 0.0005 ± 0.033 | 0.018 ± 0.023 | -0.01 ± 0.034 | -0.012 ± 0.038 | 0.001 ± 0.04
BE3C:CD87/uPAR | 0.014 ± 0.021 | 0.0125 ± 0.025 | -0.018 ± 0.0071 | 0.0125 ± 0.015 | 0.0575 ± 0.061 | 0.083 ± 0.011 | 0.0115 ± 0.018 | 0.016 ± 0.0014 | -0.001 ± 0.014 | -0.0035 ± 0.057 | 0.083 | 0.018 ± 0.0014 | 0.0455 ± 0.025 | 0.102 ± 0.0099 | 0.0045 ± 0.016 | -0.0035 ± 0.011 | 0.0115 ± 0.019 | 0.018 ± 0.033 | 0.011 ± 0.0028 | 0.013 ± 0.011
